Source: patent US20240051978A1, “3-CYCLIC AMINE-INDOLE DERIVATIVES AS SEROTONERGIC AGENTS FOR THE TREATMENT OF CNS DISORDERS” (MINDSET PHARMA INC., priority 2020, published 2024)
Like-named read-outs stand apart in the source and are kept apart here.

Key:
[1] = target: human 5-HT2A (h5-HT2A) receptor (Homo sapiens (Human), UniProt P28223); test: FLIPR assay, human 5-HT2A receptor under agonist mode; format: cell-based; conditions: FLIPR calcium
Experimental: I. Assessment of the Activated Effect of Exemplary Compounds of Formula I Targeting on Human 5-HT2A (h5-HT2A) Receptor Under Agonist Mode:
1. the Cells were cultured in cell culture medium (DMEM containing 10% FBS 1×penicillin-streptomycin 300 μg/ml G418 and 100 μg/ml hygromycin B) at 37° C., 5% (v/v) CO2.
2. One day before the assays, the cells were detached using TrypLE™ Express and cells were counted using cell counter.
3. 20000 cells/well were seeded in 30 μl/well culture medium to a 384-well cell plate and the cells were incubated overnight at 37° C., 5% (v/v) CO2.
4. On the assay day, 2× dye solution was prepared following the manual of the FLIPR® Calcium 6 Assay Kit: i. The dye was diluted with assay buffer(20 mM HEPES in 1×HBSS, PH7.4); ii. Probenecid was added to the final concentration of 5 mM; iii. Vortex vigorously for 1-2 minutes.
5. Medium was removed from cell plate by flicking the cell plate on towel papers.
6. 10 μl of assay buffer and 10 μl of 2× dye solution was added to each well of the cell plate.
7. The cell plate was placed on plate shaker, and the plate was agitated at 600 rpm for 2 minutes. The plate was incubated at 37° C. for 2 hours followed by additional 15-minute incubation at 25° C.
8. 3× compound in assay buffer was prepared: a. reference compounds were diluted to required concentration with DMSO. Compounds were added to a 384-well compound plate; b. Serial dilutions were performed; c. 10 mM test compounds were added to the compound plate, 3-fold serial dilutions were performed. d. […] 20 μl/well assay buffer was added to the compound plate; f. The plate was mixed on plate shaker for 2 mins;
i. The normalized fluorescence reading (RFU) was calculated as shown below, wherein Fmax and Fmin stand for maximum and minimum of calcium signal during defined time window: RFU=Fmax−Fmin
ii. The percentage activation was calculated by using following equation: […]
iii. EC50 was calculated by fitting % activation against log of compound concentrations with Hill equation using XLfit.

human 5-HT2A receptor = human 5-HT2A receptor (Homo sapiens (Human), UniProt P28223); test: Radioligand binding assay ([3H]-ketanserin) on human 5-HT2A receptor; conditions: [3H]-ketanserin competition; read-out: h5-HT2A IC50
Experimental: • i. The assay buffer was prepared following the table below;
• ii. 8 doses of reference and exemplary test compounds were prepared starting from 10 mM stock solution as requested by 5-fold serial dilutions with 100%; • iii. (v/v) DMSO was prepared: a. 50 μl/well of 0.5% (v/v) PEI was added to UniFilter-96 GF/B plates. The plates were sealed and incubates at 4° C. for 3 hrs; b. After incubation, the plates were washed 3 times with ice-cold wash buffer (50 mM Tris, pH7.4); • iv. Preparation of assay plates: a. Cell membrane was diluted with assay buffer and 330 μl/well was added to 96 round deep well plates to reach a concentration of 20 μg/well; b. 8 concentrations of reference or exemplary test compounds were prepared and added 110 μl/well to 96 round deep well plates; c. [3H]-ketanserin was diluted with assay buffer to 5 nM (5× final concentration) and added 110 μl/well to 96 round deep well plates. • v. The plate were centrifuged at 1000 rpm for 30 secs and then agitated at 600 rpm, R.T. for 5 min. • vi. The plates were sealed and incubated at 27° C. for 90 min. • vii. The incubation was stopped by vacuum filtration onto GF/B filter plates followed by 4 times washing with ice-cold wash buffer (50 mM Tris, pH7.4). • vii. […] The filter plates were sealed and 40 μl/well of scintillation cocktail added. • x. The plate was read by using a Microbeta2 microplate counter.
For reference and exemplary test compounds, the results are expressed as % Inhibition, using the normalization equation: N=100−100×(U−C2)/(C1−C2), where U is the unknown value, C1 is the average of high controls, and C2 is the average of low controls. The IC50 was determined by fitting percentage of inhibition as a function of compound concentrations with Hill equation using XLfit.

[2] = Liver microsomes stability, human; conditions: for Remaining Percentage (%) 0 min / Remaining Percentage (%) 60 min: Human
Experimental: (§1) The objective of this study was to estimate in vitro metabolic stability of 1-12 in pooled human and male mouse liver microsomes. The concentrations of parent compounds in reaction systems were evaluated by LC-MS/MS for estimating the stability in pooled human and male mouse liver microsomes. The in vitro intrinsic clearances of test compounds were determined as well.
(§2) A master solution in the “Incubation Plate” containing phosphate buffer, ultra-pure H2O, MgCl2 solution and liver microsomes was made according to Table 3. The mixture was pre-warmed at 37° C. water bath for 5 minutes.
(§3) 40 μL of 10 mM NADPH solution was added to each well. The final concentration of NADPH was 1 mM. The negative control samples were prepared by replacing NADPH with 40 μL of ultra-pure H2O. Samples were prepared in duplicate. Negative controls were prepared in singlet.
(§4) The reaction was started with the addition of 4 μL of 200 μM exemplary test compounds or control compounds to each master solution to get the final concentration of 2 μM. This study was performed in duplicate.
(§5) Aliquots of 50 μL were taken from the reaction solution at 0, 15, 30, 45 and 60 minutes. The reaction solutions were stopped by the addition of 4 volumes of cold methanol with IS (100 nM alprazolam, 200 nM imipramine, 200 nM labetalol and 2 μM ketoprofen). Samples were centrifuged at 3,220 g for 40 minutes. Aliquot of 90 μL of the supernatant was mixed with 90 μL of ultra-pure H2O and then was used for LC-MS/MS analysis.
(§6) LC/MS analysis was performed for all samples from this study using a Shimadzu liquid chromatograph separation system equipped with degasser DUG-20A5R; solvent delivery unit LC-30AD; system controller SIL-30AC; column oven CTO-30A; CTC Analytics HTC PAL System; Mass spectrometric analysis was performed using an Triple Quad™ 5500 instrument.
(§7) All calculations were carried out using Microsoft Excel. Peak area ratios of test compound to internal standard (listed in the below table) were determined from extracted ion chromatograms.
(§8) All calculations were carried out using Microsoft Excel. Peak areas were determined from extracted ion chromatograms. The slope value, k, was determined by linear regression of the natural logarithm of the remaining percentage of the parent drug vs. incubation time curve.
(§9) The in vitro half-life (in vitro t½) was determined from the slope value:
(§10) Conversion of the in vitro t½ (min) into the in vitro intrinsic clearance (in vitro CLint, in μL/min/mg proteins) was done using the following equation (mean of duplicate determinations): […]

[3] = Liver microsomes stability, rat; conditions: for Remaining Percentage (%) 0 min / Remaining Percentage (%) 60 min: Rat
Experimental: as §1, §2, §3, §4, §5, §6, §7, §8, §9, §10

[4] = Liver microsomes stability, mouse; conditions: for Remaining Percentage (%) 0 min / Remaining Percentage (%) 60 min: Mouse
Experimental: as §1, §2, §3, §4, §5, §6, §7, §8, §9, §10

[5] = cited from earlier work

[2H]C1([2H])CC(c2c[nH]c3cccc(OCc4ccccc4)c23)C([2H])([2H])N1 (centres unmarked) [Compound I-35, 4-(benzyloxy)-3-(pyrrolidin-3-yl-2,2,5,5-d4)-1H-indole]
EC50 [1]: < 1000 nM | IC50 (human 5-HT2A receptor): < 1000 nM | Predicted hepatic CL ([2]; Human liver microsomes, with NADPH): 0.00 mL/min/kg | T1/2 (min) ([2]; Human liver microsomes, with NADPH, 2 μM): ∞ | Remaining Percentage (%) 0 min ([2]; With NADPH): 100.00% | Remaining Percentage (%) 60 min ([2]; With NADPH): 104.21% | Remaining Percentage (%) 0 min ([2]; Without NADPH): 100.00% | Remaining Percentage (%) 60 min ([2]; Without NADPH): 119.60% | Predicted hepatic CL ([3]; Rat liver microsomes, with NADPH): 17.94 mL/min/kg | Remaining Percentage (%) 0 min ([3]; With NADPH): 100.00% | Remaining Percentage (%) 60 min ([3]; With NADPH): 64.09% | Remaining Percentage (%) 0 min ([3]; Without NADPH): 100.00% | Remaining Percentage (%) 60 min ([3]; Without NADPH): 103.32% | CLint scaled at 2 μM ([3]; rat, microsomes): 26.6 mL/min/kg | half-life at 2 μM ([3]; rat, microsomes): 1.56 h | microsomal CLint at 2 μM ([3]; rat, microsomes): 14.8 µL/min/mg | Predicted hepatic CL ([4]; Mouse liver microsomes, with NADPH): 32.19 mL/min/kg | Remaining Percentage (%) 0 min ([4]; With NADPH): 100.00% | Remaining Percentage (%) 60 min ([4]; With NADPH): 70.91% | Remaining Percentage (%) 0 min ([4]; Without NADPH): 100.00% | Remaining Percentage (%) 60 min ([4]; Without NADPH): 90.87% | CLint scaled at 2 μM ([4]; male, mouse, microsomes): 50.1 mL/min/kg | half-life at 2 μM ([4]; male, mouse, microsomes): 2.02 h | microsomal CLint at 2 μM ([4]; male, mouse, microsomes): 11.5 µL/min/mg

CN(C)CCc1c[nH]c2cccc(OP(=O)(O)O)c12 [Psilocybin, 4-phosphoryloxy-N,N-dimethyltrypatmine]
abstinence rate ([5]; 12 months follow-up): 67% | abstinence rate ([5]; six months follow-up): 80%
